Source: ChEMBL document CHEMBL3137667, “[Drug-induced liver injury; fourteenth updated edition of the bibliographic database of liver injuries and related drugs]” (Gastroenterol Clin Biol, 2004)

Columns and labels:
[1] = human
[2] = human; remark: listed apart in the source
[3] = human, serum
[4] = human, serum; remark: listed apart in the source
[5] = human; remark: listed apart in the source
[6] = Highest frequency of moderate liver toxicity observed during clinical trials, expressed as a percentage. [column '% BIOL' in source]; details: human
[7] = human; remark: listed apart in the source
[8] = Highest frequency of acute liver toxicity observed during clinical trials, expressed as a percentage. [column '% AIGUE' in source]; details: human
[9] = human; remark: listed apart in the source
[10] = human; remark: listed apart in the source
[11] = human; remark: listed apart in the source
[12] = human, serum, 4383 h
[13] = human; remark: listed apart in the source
[14] = human; remark: listed apart in the source
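Throughout, for Hepatotoxicity (association with vascular disease): count of indexed literature references reporting vascular liver injury in humans, e.g. peliosis hepatitis, hepatic veno-occlusive disease or Budd-Chiari syndrome.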
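Throughout, for Hepatotoxicity (benign tumour): value is a count of indexed literature references citing a benign tumour confirmed by histopathology.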
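Throughout, for Hepatotoxicity (choleostasis): human cholestatic liver injury, shown by histopathology or by peak ALT or AST elevation over alkaline phosphatase ratio below 2, value counts indexed literature reports.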
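Throughout, for Hepatotoxicity (chronic liver disease): chronic liver injury confirmed by histopathology or persistently raised serum aminotransferase activity beyond 6 months, value given as the count of indexed literature references.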
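Throughout, for Hepatotoxicity (cirrhosis): value is a count of indexed literature references reporting cirrhosis confirmed by histopathology.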
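Throughout, for Hepatotoxicity (cytolytic): human cytolytic liver injury, shown by histopathology or by a ratio above 5 of peak ALT or AST elevation to alkaline phosphatase elevation, value counts indexed references.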
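Throughout, for Hepatotoxicity (granulomatous hepatitis): value is a count of indexed literature references reporting granulomatous liver disease confirmed by histopathology.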
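Throughout, for Hepatotoxicity (malignant tumour): malignant tumour confirmed by histopathology, value gives the count of indexed literature references reporting it.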
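Throughout, for Hepatotoxicity (severe hepatitis): human clinical data: severe hepatitis, meaning potentially life-threatening liver failure or clinically observed cases, the value counts how many indexed literature references report it.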
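Throughout, for Hepatotoxicity (steatosis): steatosis confirmed by histopathology, value is the count of indexed references.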

Structure (SMILES)	Hepatotoxicity (severe hepatitis) [1]	Hepatotoxicity (malignant tumour) [2]	Hepatotoxicity (moderate) [3]	Hepatotoxicity (acute) [4]	Hepatotoxicity (cytolytic) [5]	Hepatotoxicity (moderate) [6] [%]	Hepatotoxicity (benign tumour) [7]	Hepatotoxicity (acute) [8] [%]	Hepatotoxicity (choleostasis) [9]	Hepatotoxicity (association with vascular disease) [10]	Hepatotoxicity (granulomatous hepatitis) [11]	Hepatotoxicity (chronic liver disease) [12]	Hepatotoxicity (steatosis) [13]	Hepatotoxicity (cirrhosis) [14]	Hepatotoxicity (severe hepatitis) ([1]; Liver)	Hepatotoxicity (cytolytic) ([5]; Liver)	Hepatotoxicity (moderate) ([6]; Liver) [%]	Hepatotoxicity (acute) ([8]; Liver) [%]	Hepatotoxicity (choleostasis) ([9]; Liver)	Hepatotoxicity (granulomatous hepatitis) ([11]; Liver)
NC(=O)c1cc[n+](CC2=C(C(=O)O)N3C(=O)[C@@H](NC(=O)[C@@H](c4ccccc4)S(=O)(=O)[O-])[C@H]3SC2)cc1 [CEFSULODIN]	0	0	4	0	0	18.2	0	0	0	0	0	0	0	0						
CC(C)c1nc(N(C)S(C)(=O)=O)nc(-c2ccc(F)cc2)c1/C=C/[C@@H](O)C[C@@H](O)CC(=O)O [ROSUVASTATIN]	0	0	0	1	1	0	0	0.1	0	0	0	0	0	0						
CC[C@@]1(O)C(=O)OCc2c1cc1n(c2=O)Cc2cc3c(CN(C)C)c(O)ccc3nc2-1 [TOPOTECAN]	0	0	1	0	0	5.3	0	0	0	0	0	0	0	0						
CNC(=O)C[C@@H](N)C(=O)N[C@@H](C(=O)N[C@@H]1C(=O)N2[C@@H]1SC(C)(C)[C@@H]2C(=O)O)c1ccc(O)cc1 [ASPOXICILLIN]	0	0	20	0	0	40	0	0	0	0	0	0	0	0						
Clc1ccc(C(Cn2ccnc2)OCc2ccsc2Cl)c(Cl)c1 (configuration not stated) [TIOCONAZOLE]		0	1	0			0			0		0	0	0	0	0	5.3	0	0	0
CC(=O)N[C@@H]1[C@H](Oc2c3cc4cc2Oc2ccc(cc2Cl)[C@@H](O[C@@H]2O[C@@H](CO)[C@@H](O)[C@H](O)[C@@H]2NC(C)=O)[C@@H]2NC(=O)[C@H](NC(=O)[C@@H]4NC(=O)[C@H]4NC(=O)[C@@H](Cc5ccc(c(Cl)c5)O3)NC(=O)[C@H](N)c3ccc(O)c(c3)Oc3cc(O)cc4c3)c3ccc(O)c(c3)-c3c(O[C@H]4O[C@H](CO)[C@@H](O)[C@@H](O)[C@@H]4O)cc(O)cc3[C@@H](C(=O)O)NC2=O)O[C@@H](CO)[C@@H](O)[C@@H]1O	0	0	36	4	1	26.9	0	0.9	1	0	0	0	0	0						
CC(=O)OCC(=O)[C@@]1(O)CC[C@H]2[C@@H]3CCC4=CC(=O)C=C[C@]4(C)[C@@]3(F)[C@@H](O)C[C@@]21C [ISOFLUPREDONE ACETATE]	0	0	2	0	0	0	0	0	0	0	0	0	0	0						
C[C@@H](O)[C@H]1C(=O)N2C(C(=O)O)=C(S[C@@H]3CN[C@H](C(=O)N(C)C)C3)[C@H](C)[C@H]12 [MEROPENEM]	0	0	92	1	0	48.1	0	5.3	0	0	0	0	0	0						
